Among the test systems are 786-0 renal; CAKI-1 renal; COLO 205 colon; IGROV1 ovarian; NCI-H460 lung; NCI/ADR-RES ovarian; OVCAR-5 ovarian; SF-295 CNS; SR leukemia; UO-31 renal.
Holding throughout (experiment): NCI-60 cell line screen, 48 h

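Each compound was tested at five concentrations against cells in 96-well plates for 48 hours. Here, GI50 denotes the concentration required for 50% inhibition of growth. TGI: concentration producing complete growth inhibition.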

Regarding `O=C1CCC2=C3C4CCCCC4C(=O)C4CCCC(OC2C1)C34` (stereo not given), the GI50 with 786-0 renal is 2.51 µM; in the experiment with CAKI-1 renal it was 1.34 µM; in the experiment with COLO 205 colon it was 17.7 µM; in the experiment with IGROV1 ovarian it was 1.64 µM; with NCI-H460 lung it was 0.87 µM; with NCI/ADR-RES ovarian, 0.36 µM. Also, the GI50 was above 20.6 µM in the experiment with OVCAR-5 ovarian, 2.49 µM in the experiment with SF-295 CNS, 0.307 µM in the experiment on SR leukemia and 0.487 µM in the experiment with UO-31 renal. For the same molecule, the TGI in the experiment on 786-0 renal is above 29.8 µM; in the experiment on CAKI-1 renal it was 5.47 µM; in the experiment with COLO 205 colon it was above 72.7 µM; in the experiment with IGROV1 ovarian it was 6.15 µM; in the experiment on NCI-H460 lung, 4.57 µM; in the experiment on NCI/ADR-RES ovarian, 4.06 µM. Besides, the TGI in the experiment with OVCAR-5 ovarian is above 100 µM; in the experiment on SF-295 CNS it was 15.5 µM; in the experiment with SR leukemia, 54.8 µM; in the experiment on UO-31 renal, 3.88 µM.
Regarding `ClC1(c2ccccc2)c2ccc(Br)cc2-c2cc(Br)ccc21`, the TGI in the experiment with 786-0 renal came out at 30.2 µM; in the experiment on CAKI-1 renal it was 29.4 µM; in the experiment with COLO 205 colon, 33.7 µM; in the experiment with IGROV1 ovarian, 30.2 µM; in the experiment on NCI-H460 lung, 27.4 µM; in the experiment on NCI/ADR-RES ovarian it was 34.3 µM. Moreover, the TGI with OVCAR-5 ovarian worked out at 31.4 µM; in the experiment on SF-295 CNS, 31.8 µM; with SR leukemia, 70.6 µM; in the experiment with UO-31 renal, 29.6 µM.
For the molecule `Cc1ccc(C(=O)CCC2C(=O)CC(C)(C)CC2=O)cc1`, the TGI with 786-0 renal is above 100 µM; in the experiment on CAKI-1 renal, 32 µM; in the experiment on COLO 205 colon, above 100 µM; with IGROV1 ovarian, above 100 µM; in the experiment on NCI-H460 lung, above 100 µM; in the experiment on NCI/ADR-RES ovarian, above 100 µM. The TGI is above 100 µM in the experiment on OVCAR-5 ovarian, above 100 µM in the experiment with SF-295 CNS, 65.5 µM in the experiment with SR leukemia and above 100 µM in the experiment on UO-31 renal.
Consider `CC(=O)O[C@H]1C(=O)[C@@]2(C)[C@H]([C@H](OC(=O)c3ccccc3)[C@]3(O)C[C@H](OC(=O)[C@H](O)[C@@H](NC(=O)CC(C)C)c4ccccc4)C(C)=C1C3(C)C)[C@]1(OC(C)=O)CO[C@@H]1C[C@@H]2O`, for which the TGI is above 10 µM with 786-0 renal; above 10 µM in the experiment on CAKI-1 renal; 0.0112 µM in the experiment on COLO 205 colon; above 10 µM with IGROV1 ovarian; above 10 µM in the experiment with NCI-H460 lung; above 10 µM with NCI/ADR-RES ovarian. The TGI was above 10 µM in the experiment on OVCAR-5 ovarian, 0.508 µM in the experiment on SF-295 CNS, 0.138 µM in the experiment on SR leukemia and above 10 µM with UO-31 renal.
`C/C=C1\C(=O)O[C@@H]2C1C[C@@H]1O[C@H]2[C@H](C)CCC/C(C)=C/CC[C@@]1(C)O` (stereo not given in full): the GI50 in the experiment with 786-0 renal was 3.21 µM; with CAKI-1 renal it was 3.47 µM; with COLO 205 colon it was 8.16 µM; in the experiment with IGROV1 ovarian it was 1.29 µM; in the experiment with NCI-H460 lung, 4.81 µM; with NCI/ADR-RES ovarian, 3.89 µM. Also, the GI50 in the experiment with OVCAR-5 ovarian was 13.5 µM; in the experiment with SF-295 CNS, 13.3 µM; in the experiment with SR leukemia, 2.41 µM; in the experiment with UO-31 renal, 3.02 µM. The TGI was found to be 14.2 µM in the experiment with 786-0 renal; 15.4 µM in the experiment on CAKI-1 renal; 41.8 µM in the experiment on COLO 205 colon; 3.32 µM in the experiment with IGROV1 ovarian; 25.7 µM in the experiment on NCI-H460 lung; 13.4 µM with NCI/ADR-RES ovarian. The TGI with OVCAR-5 ovarian was 26.8 µM; with SF-295 CNS, 27.6 µM; with SR leukemia it was above 100 µM; with UO-31 renal, 10.4 µM.
In the case of `CN(C1=NS(=O)(=O)N=C(N(C)c2ccccc2)O1)c1ccccc1`, the TGI in the experiment with 786-0 renal was determined as 72.7 µM; in the experiment with CAKI-1 renal, 45.4 µM; with COLO 205 colon, 46 µM; in the experiment on IGROV1 ovarian, 75.7 µM; in the experiment on NCI-H460 lung, 47.7 µM; in the experiment with NCI/ADR-RES ovarian, 70.8 µM. In addition, the TGI with OVCAR-5 ovarian was determined as 47 µM; in the experiment with SF-295 CNS, 57.7 µM; with SR leukemia, 44.7 µM; in the experiment with UO-31 renal, 37.6 µM.

The values are drawn from PubChem BioAssay (NCI).
